Assays:
CDK13 = CDK13 (Homo sapiens (Human), UniProt Q14004); assay: LANCE Ultra kinase assay, CDK13; format: biochemical; conditions: 30 nM enzyme, 60 min pre-incubation, ULight-4E-BP1 150 nM; read-out: CDK13 IC50
Method: (§1) The inhibitory activities of the test compound on the kinases were evaluated by LANCE Ultra assay, which was used for detecting ATP-dependent phosphorylation of a ULight-4E-BP1 (Thr37/Thr46) substrate peptide (150 nM). In short, enzymatic reactions were performed in a reaction buffer (25 mM HEPES (pH 7.5), 10 mM MgCl2, 0.01% BSA, 0.01% Tween 20, and 1 mM DTT). The assay was performed in a 384-well plate (6 μL). A final concentration of an ATP substrate was […], and a final concentration of the ULight-4E-BP1 (Thr37/Thr46) substrate peptide was 150 nM. A final concentration of CDK9, CDK12, or CDK13 was 0.3, 30, or 30 nM, respectively. Pre-incubation of the compound and the enzyme was performed at room temperature for 60 min. The reaction was stopped by adding 10 mM EDTA and 0.15 nM Eu-labeled anti-phospho-eIF4E-binding protein 1 (Thr37/46) antibody in LANCE detection buffer after incubation at room temperature for 15, 60, or 90 min. Time-resolved fluorescence (excitation, 320 nm; emission donor, 615 nm; emission acceptor, 665 nm) was monitored using an EnVision spectrophotometer (PerkinElmer). Readings were computed as (acceptor count/donor count)×1000. IC50 values were derived by fitting a sigmoidal dose-response curve to a plot of assay readouts of inhibitor concentrations. All fittings were computed using program Prism 5.03 (GraphPad Software, San Diego, CA).

CDK12 = CDK12 (Homo sapiens (Human), UniProt Q9NYV4); assay: LANCE Ultra kinase assay, CDK12; format: biochemical; conditions: 30 nM enzyme, 60 min pre-incubation, ULight-4E-BP1 150 nM; read-out: CDK12 IC50
Method: as §1

VCaP cell = VCaP cell proliferation, CellTiter-Glo Luminescent Cell Viability Assay; format: cell-based; conditions: Homo sapiens, VCaP cells
Method: The VCaP cell proliferation activity was determined by CellTiter-Glo Luminescent Cell Viability Assay (Promega, Madison, WI). The cells were inoculated on a 96-well plate in their respective culture mediums, and incubated in an incubator with 5% CO2 at 37° C. After incubation overnight, serial dilutions of the compound were prepared, and added into the 96-well plate. A CellTiter-Glo reagent (volume equal to the volume of the cell culture medium present in each well) was added (e.g., 100 μL of the reagent was added into 100 μL of the cell culture medium in the 96-well plate). The contents were mixed on an orbital shaker for 2 min to induce the cell lysis. The cells in the 96-well plate were incubated at room temperature for 10 min, to stabilize the luminescent signal. Luminescence was recorded: the luminescent signal for each well was acquired using an Infinite M1000 Pro plate reader (Tecan, Zurich, Switzerland), and the data was analyzed using GraphPad Prism software (GraphPad Software Inc, La Jolla, CA).

Chain of CDK13 (Q14004 whole entry, looked up): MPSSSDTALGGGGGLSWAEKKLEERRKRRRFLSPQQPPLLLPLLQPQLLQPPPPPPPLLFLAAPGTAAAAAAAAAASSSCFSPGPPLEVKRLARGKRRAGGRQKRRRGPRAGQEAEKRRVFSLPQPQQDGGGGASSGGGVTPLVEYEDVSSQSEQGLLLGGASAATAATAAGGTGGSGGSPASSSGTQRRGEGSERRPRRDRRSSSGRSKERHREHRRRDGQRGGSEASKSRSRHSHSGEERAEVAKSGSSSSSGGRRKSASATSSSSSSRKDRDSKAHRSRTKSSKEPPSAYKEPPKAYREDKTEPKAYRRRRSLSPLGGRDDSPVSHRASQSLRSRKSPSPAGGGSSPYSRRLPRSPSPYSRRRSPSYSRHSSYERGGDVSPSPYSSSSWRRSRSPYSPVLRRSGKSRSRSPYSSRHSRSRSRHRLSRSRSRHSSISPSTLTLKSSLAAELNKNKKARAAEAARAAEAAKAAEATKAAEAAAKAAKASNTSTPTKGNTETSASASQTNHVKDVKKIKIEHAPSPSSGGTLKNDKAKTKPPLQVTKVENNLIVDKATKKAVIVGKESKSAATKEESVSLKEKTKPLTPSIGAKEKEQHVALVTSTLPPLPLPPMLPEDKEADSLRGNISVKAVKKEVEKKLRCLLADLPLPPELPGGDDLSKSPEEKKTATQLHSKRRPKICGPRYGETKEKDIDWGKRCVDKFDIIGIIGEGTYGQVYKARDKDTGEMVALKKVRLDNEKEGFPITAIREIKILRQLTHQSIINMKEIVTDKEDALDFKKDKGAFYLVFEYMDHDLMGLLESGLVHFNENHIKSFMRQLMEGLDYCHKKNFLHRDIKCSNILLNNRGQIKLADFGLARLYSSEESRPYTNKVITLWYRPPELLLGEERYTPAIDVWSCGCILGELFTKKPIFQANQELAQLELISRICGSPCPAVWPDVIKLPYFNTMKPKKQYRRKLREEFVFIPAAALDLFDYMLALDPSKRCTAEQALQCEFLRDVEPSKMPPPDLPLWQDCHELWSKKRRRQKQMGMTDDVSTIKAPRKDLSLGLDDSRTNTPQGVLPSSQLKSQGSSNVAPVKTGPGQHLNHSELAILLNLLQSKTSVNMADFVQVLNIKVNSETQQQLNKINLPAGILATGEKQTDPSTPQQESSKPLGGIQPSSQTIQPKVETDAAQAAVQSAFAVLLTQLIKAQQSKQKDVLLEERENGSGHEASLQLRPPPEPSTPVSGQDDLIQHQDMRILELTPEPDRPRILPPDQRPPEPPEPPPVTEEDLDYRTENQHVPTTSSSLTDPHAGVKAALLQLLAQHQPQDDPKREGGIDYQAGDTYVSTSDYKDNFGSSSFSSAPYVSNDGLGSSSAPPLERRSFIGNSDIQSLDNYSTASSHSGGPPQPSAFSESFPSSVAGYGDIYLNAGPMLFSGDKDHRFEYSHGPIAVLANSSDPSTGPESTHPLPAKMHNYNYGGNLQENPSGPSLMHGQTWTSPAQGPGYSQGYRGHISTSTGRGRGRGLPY
Chain of CDK13 (O75909 whole entry partner, looked up): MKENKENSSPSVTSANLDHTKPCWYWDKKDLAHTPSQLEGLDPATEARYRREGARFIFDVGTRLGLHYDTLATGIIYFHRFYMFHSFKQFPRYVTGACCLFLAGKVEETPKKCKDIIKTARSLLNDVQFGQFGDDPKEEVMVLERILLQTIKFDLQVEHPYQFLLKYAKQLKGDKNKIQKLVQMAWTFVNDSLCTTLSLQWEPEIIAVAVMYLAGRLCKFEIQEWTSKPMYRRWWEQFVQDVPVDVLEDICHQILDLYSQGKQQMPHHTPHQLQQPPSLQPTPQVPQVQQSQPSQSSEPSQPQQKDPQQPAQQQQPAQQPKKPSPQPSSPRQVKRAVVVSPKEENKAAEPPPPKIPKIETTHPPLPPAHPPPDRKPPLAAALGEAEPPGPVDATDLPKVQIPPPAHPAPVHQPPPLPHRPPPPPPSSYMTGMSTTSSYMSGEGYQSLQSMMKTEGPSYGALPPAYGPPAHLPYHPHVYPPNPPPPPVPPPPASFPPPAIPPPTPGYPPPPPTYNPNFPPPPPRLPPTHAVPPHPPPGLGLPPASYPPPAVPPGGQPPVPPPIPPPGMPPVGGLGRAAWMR
Chain of CDK12 (Q9NYV4 whole entry): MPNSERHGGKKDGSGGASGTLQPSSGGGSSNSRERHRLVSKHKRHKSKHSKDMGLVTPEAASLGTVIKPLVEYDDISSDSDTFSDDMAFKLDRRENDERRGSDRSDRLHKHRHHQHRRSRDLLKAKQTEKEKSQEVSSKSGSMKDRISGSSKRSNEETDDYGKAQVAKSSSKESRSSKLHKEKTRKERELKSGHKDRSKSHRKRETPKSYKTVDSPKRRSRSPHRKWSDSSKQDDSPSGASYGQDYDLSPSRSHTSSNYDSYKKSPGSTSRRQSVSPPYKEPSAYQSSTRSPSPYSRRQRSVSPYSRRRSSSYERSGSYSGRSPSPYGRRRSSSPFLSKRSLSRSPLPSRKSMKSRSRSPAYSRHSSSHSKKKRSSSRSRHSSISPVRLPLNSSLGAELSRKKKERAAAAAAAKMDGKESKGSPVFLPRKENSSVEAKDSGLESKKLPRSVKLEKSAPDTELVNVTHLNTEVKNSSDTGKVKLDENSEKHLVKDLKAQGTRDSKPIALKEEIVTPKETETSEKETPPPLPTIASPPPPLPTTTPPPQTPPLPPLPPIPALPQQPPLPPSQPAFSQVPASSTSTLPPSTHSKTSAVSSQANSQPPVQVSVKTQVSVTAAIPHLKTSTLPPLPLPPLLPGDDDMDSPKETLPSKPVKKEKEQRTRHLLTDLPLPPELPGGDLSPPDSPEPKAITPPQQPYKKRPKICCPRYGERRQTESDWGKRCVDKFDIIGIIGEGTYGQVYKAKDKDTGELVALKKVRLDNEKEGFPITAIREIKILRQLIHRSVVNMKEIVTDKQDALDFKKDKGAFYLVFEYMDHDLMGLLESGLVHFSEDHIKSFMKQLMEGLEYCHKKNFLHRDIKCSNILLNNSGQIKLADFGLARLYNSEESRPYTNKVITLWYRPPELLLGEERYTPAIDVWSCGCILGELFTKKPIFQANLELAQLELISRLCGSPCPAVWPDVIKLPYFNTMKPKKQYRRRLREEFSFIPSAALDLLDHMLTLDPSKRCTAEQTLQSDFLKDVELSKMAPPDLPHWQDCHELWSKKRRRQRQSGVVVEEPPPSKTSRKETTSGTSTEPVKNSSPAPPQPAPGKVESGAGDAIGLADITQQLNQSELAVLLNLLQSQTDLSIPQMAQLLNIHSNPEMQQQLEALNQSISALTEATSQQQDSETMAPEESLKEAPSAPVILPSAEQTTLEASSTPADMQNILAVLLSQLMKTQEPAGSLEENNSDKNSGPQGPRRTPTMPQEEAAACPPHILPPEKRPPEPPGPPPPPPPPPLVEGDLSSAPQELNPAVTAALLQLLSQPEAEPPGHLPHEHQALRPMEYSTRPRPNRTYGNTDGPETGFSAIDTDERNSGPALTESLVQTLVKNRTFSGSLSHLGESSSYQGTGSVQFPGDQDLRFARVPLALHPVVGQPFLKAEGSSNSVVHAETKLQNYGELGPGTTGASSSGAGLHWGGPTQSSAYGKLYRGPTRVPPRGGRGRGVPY
Chain of CDK12 (O75909 whole entry partner): as the sequence (O75909 whole entry partner, looked up) above

| IC50 (CDK13) [nM] | IC50 (CDK12) [nM] | IC50 (VCaP cell) [nM] | Compound |
| --- | --- | --- | --- |
| 50 to 500 | 50 to 500 |  | C=CC(=O)Nc1cc(N(C(=O)NC2CC2)[C@H]2CC[C@H](Nc3ccc(C#N)cn3)CC2)ccc1N1CCN(C)[C@@H](C)C1 [YJZ9173, N-(5-(1-((1r,4S)-4-((5-cyanopyridin-2-yl)amino)cyclohexyl)-3-cyclopropylureido)-2-((S)-3,4-dimethylpiperazin-1-yl)phenyl)acrylamide] |
| < 15 | 15 to 50 |  | C=CC(=O)Nc1cc(N(C(=O)NCc2cccc(F)c2)[C@H]2CC[C@H](Nc3ccc(C#N)cn3)CC2)ccc1N1CCN(C)[C@@H](C)C1 [YJZ9177, N-(5-(1-((1r,4S)-4-((5-cyanopyridin-2-yl)amino)cyclohexyl)-3-(3-fluorobenzyl)ureido)-2-((S)-3,4-dimethylpiperazin-1-yl)phenyl)acrylamide] |
|  |  | 15 to 50 | C=CC(=O)Nc1cc(N(C(=O)C(=O)N[C@H](C)c2ccccc2)[C@H]2CC[C@H](Nc3ccc(C#N)cn3)CC2)ccc1N1CCN(C)[C@@H](C)C1 [YJZ8105, N1-(3-acrylamido-4-((S)-3,4-dimethylpiperazin-1-yl)phenyl)-N1-((1r,4R)-4-((5-cyanopyridin-2-yl)amino)cyclohexyl)-N2-((R)-1-phenylethyl)oxalamide] |
| 50 to 500 | 50 to 500 |  | C=CC(=O)Nc1cc(N(C(=O)NCc2cocn2)[C@H]2CC[C@H](Nc3ccc(C#N)cn3)CC2)ccc1N1CCN(C)[C@@H](C)C1 [YJZ1063, N-(5-(1-((1r,4S)-4-((5-cyanopyridin-2-yl)amino)cyclohexyl)-3-(oxazol-4-ylmethyl)ureido)-2-((S)-3,4-dimethylpiperazin-1-yl)phenyl)acrylamide] |
| 50 to 500 | 50 to 500 |  | C=CC(=O)Nc1cc(N(C(=O)NCc2ccccc2)[C@H]2CC[C@H](Nc3ccc(C#N)cn3)CC2)ccc1N1CCN(C)CC1 [YJZ5114, N-(5-(3-benzyl-1-((1r,4r)-4-((5-cyanopyridin-2-yl)amino)cyclohexyl)ureido)-2-(4-methylpiperazin-1-yl)phenyl)acrylamide] |
| 15 to 50 | 15 to 50 |  | C=CC(=O)Nc1cc(N(C(=O)NCc2ccc(F)cc2)[C@H]2CC[C@H](Nc3ccc(C#N)cn3)CC2)ccc1N1CCN(C)[C@@H](C)C1 [YJZ9166, N-(5-(1-((1r,4S)-4-((5-cyanopyridin-2-yl)amino)cyclohexyl)-3-(4-fluorobenzyl)ureido)-2-((S)-3,4-dimethylpiperazin-1-yl)phenyl)acrylamide] |
| < 15 | < 15 |  | C=CC(=O)Nc1cc(N(C(=O)NCc2ccccc2Cl)[C@H]2CC[C@H](Nc3ccc(C#N)cn3)CC2)ccc1N1CCN(C)[C@@H](C)C1 [YJZ1060, N-(5-(3-(2-chlorobenzyl)-1-((1r,4S)-4-((5-cyanopyridin-2-yl)amino)cyclohexyl)ureido)-2-((S)-3,4-dimethylpiperazin-1-yl)phenyl)acrylamide] |
| 50 to 500 | 50 to 500 |  | C=CC(=O)Nc1cc(N(C(=O)NCC(F)(F)F)[C@H]2CC[C@H](Nc3ccc(C#N)cn3)CC2)ccc1N1CCN(C)[C@@H](C)C1 [YJZ1065, N-(5-(1-((1r,4S)-4-((5-cyanopyridin-2-yl)amino)cyclohexyl)-3-(2,2,2-trifluoroethyl)ureido)-2-((S)-3,4-dimethylpiperazin-1-yl)phenyl)acrylamide] |
| < 15 | 15 to 50 |  | C=CC(=O)Nc1cc(N(C(=O)NCc2ccccc2)[C@H]2CC[C@H](Nc3ccc(C(F)(F)F)cn3)CC2)ccc1N1CCN(C)[C@@H](C)C1 [YJZ1066, N-(5-(3-benzyl-1-((1r,4S)-4-((5-(trifluoromethyl)pyridin-2-yl)amino)cyclohexyl)ureido)-2-((S)-3,4-dimethylpiperazin-1-yl)phenyl)acrylamide] |
| 50 to 500 | > 500 |  | C=CC(=O)Nc1cc(N(C(=O)NCc2cnn(C)c2)[C@H]2CC[C@H](Nc3ccc(C#N)cn3)CC2)ccc1N1CCN(C)[C@@H](C)C1 [YJZ1033, N-(5-(1-((1r,4S)-4-((5-cyanopyridin-2-yl)amino)cyclohexyl)-3-((1-methyl-1H-pyrazol-4-yl)methyl)ureido)-2-((S)-3,4-dimethylpiperazin-1-yl)phenyl)acrylamide] |
| 15 to 50 | 15 to 50 |  | C=CC(=O)Nc1cc(N(C(=O)N[C@@H](C)c2ccccc2)[C@H]2CC[C@H](Nc3ccc(C#N)cn3)CC2)ccc1N1CCN(C)[C@@H](C)C1 [YJZ9170, N-(5-(1-((1r,4S)-4-((5-cyanopyridin-2-yl)amino)cyclohexyl)-3-((S)-1-phenylethyl)ureido)-2-((S)-3,4-dimethylpiperazin-1-yl)phenyl)acrylamide] |
| 15 to 50 | 15 to 50 |  | C=CC(=O)Nc1cc(N(C(=O)NCc2ccccc2)[C@H]2CC[C@H](Nc3ccc(Cl)cn3)CC2)ccc1N1CCN(C)[C@@H](C)C1 [YJZ1070, N-(5-(3-benzyl-1-((1r,4S)-4-((5-chloropyridin-2-yl)amino)cyclohexyl)ureido)-2-((S)-3,4-dimethylpiperazin-1-yl)phenyl)acrylamide] |
| 50 to 500 | 50 to 500 |  | C=CC(=O)Nc1cc(N(C(=O)NCc2cccnc2)[C@H]2CC[C@H](Nc3ccc(C#N)cn3)CC2)ccc1N1CCN(C)[C@@H](C)C1 [YJZ1061, N-(5-(1-((1r,4S)-4-((5-cyanopyridin-2-yl)amino)cyclohexyl)-3-(pyridin-3-ylmethyl)ureido)-2-((S)-3,4-dimethylpiperazin-1-yl)phenyl)acrylamide] |
| 50 to 500 | 50 to 500 |  | C=CC(=O)Nc1cc(N(C(=O)NCC2CC2)[C@H]2CC[C@H](Nc3ccc(C#N)cn3)CC2)ccc1N1CCN(C)[C@@H](C)C1 [YJZ1025, N-(5-(1-((1r,4S)-4-((5-cyanopyridin-2-yl)amino)cyclohexyl)-3-(cyclopropylmethyl)ureido)-2-((S)-3,4-dimethylpiperazin-1-yl)phenyl)acrylamide] |
| > 500 | > 500 |  | C=CC(=O)Nc1cc(N(C(=O)NCC2COC2)[C@H]2CC[C@H](Nc3ccc(C#N)cn3)CC2)ccc1N1CCN(C)[C@@H](C)C1 [YJZ1031, N-(5-(1-((1r,4S)-4-((5-cyanopyridin-2-yl)amino)cyclohexyl)-3-(oxetanyl-3-ylmethyl)ureido)-2-((S)-3,4-dimethylpiperazin-1-yl)phenyl)acrylamide] |
| < 15 | 15 to 50 |  | C=CC(=O)Nc1cc(N(C(=O)NCc2ccccc2)[C@H]2CC[C@H](Nc3ccc(C#N)cn3)CC2)ccc1Br [YJZ6048, N-(5-(3-benzyl-1-((1r,4r)-4-((5-cyanopyridin-2-yl)amino)cyclohexyl)ureido)-2-bromophenyl)acrylamide] |
| 15 to 50 | < 15 |  | C=CC(=O)Nc1cc(N(C(=O)NCc2ccccc2)[C@H]2CC[C@H](Nc3ccc(C#N)cn3)CC2)cnc1N1CCN(C)[C@@H](C)C1 [YJZ9171, N-(5-(3-benzyl-1-((1r,4S)-4-((5-cyanopyridin-2-yl)amino)cyclohexyl)ureido)-2-((S)-3,4-dimethylpiperazin-1-yl)pyridin-3-yl)acrylamide] |
| < 15 | 15 to 50 |  | C=CC(=O)Nc1cc(N(C(=O)NCc2ccccc2F)[C@H]2CC[C@H](Nc3ccc(C#N)cn3)CC2)ccc1N1CCN(C)[C@@H](C)C1 [YJZ9179, N-(5-(1-((1r,4S)-4-((5-cyanopyridin-2-yl)amino)cyclohexyl)-3-(2-fluorobenzyl)ureido)-2-((S)-3,4-dimethylpiperazin-1-yl)phenyl)acrylamide] |
| 50 to 500 | > 500 |  | C=CC(=O)Nc1cc(N(C(=O)N[C@H](C)c2ccccc2)[C@H]2CC[C@H](Nc3ccc(C#N)cn3)CC2)ccc1N1CCN(C)[C@@H](C)C1 [YJZ9176, N-(5-(1-((1r,4R)-4-((5-cyanopyridin-2-yl)amino)cyclohexyl)-3-((R)-1-phenylethyl)ureido)-2-((S)-3,4-dimethylpiperazin-1-yl)phenyl)acrylamide] |
| 15 to 50 | 50 to 500 |  | C=C(F)C(=O)Nc1cc(N(C(=O)NCc2ccccc2)[C@H]2CC[C@H](Nc3ccc(C#N)cn3)CC2)ccc1N1CCN(C)[C@@H](C)C1 [YJZ1072, N-(5-(3-benzyl-1-((1r,4S)-4-((5-cyanopyridin-2-yl)amino)cyclohexyl)ureido)-2-((S)-3,4-dimethylpiperazin-1-yl)phenyl)-2-fluoroacrylamide] |
